How the values were obtained:
[1] = test system: myoblast cultures from UCMD patients; experiment: Mitochondrial TMRM fluorescence (membrane potential) after oligomycin in myoblast cultures from UCMD patients; format: cell-based, human; details: muscle cell cultures from UCMD patients
Protocol: To assess whether the anti-apoptotic effects of collagen VI and CsA could be traced to mitochondria, mitochondrial function was studied in living muscle cell cultures. […] Addition of oligomycin was instead followed by mitochondrial depolarization in the cells from all UCMD patients. […] Mitochondrial membrane potential was assessed based on accumulation of tetramethylrhodamine methyl ester (TMRM). It is noted that oligomycin was expected to cause hyperpolarization in healthy, respiring cells in which the mitochondrial membrane potential is maintained by proton pumping by the respiratory chain and the proton electrochemical gradient is used to drive ATP synthesis.
Panels A and B of FIG. 1 show mitochondrial membrane potentials in myoblasts from UCMD patients 1 (A) and 4 (B) as a function of time. Mitochondrial membrane potential was measured based on accumulation of tetramethylrhodamine methyl ester (TMRM). […] The extent of cell and, consequently, mitochondrial loading with potentiometric probes is affected by the activity of the plasma membrane multidrug resistance pump which is inhibited by cyclosporin A. Treatment with cyclosporins may therefore cause an increased mitochondrial fluorescence that can be erroneously interpreted as an increase of mitochondrial membrane potential. […] Data were acquired and analyzed using Cell R software (Olympus). […] Apoptosis was assessed as described before.

[2] = Initial phase I clinical studies, safety of oral doses; format: in vivo, human
Protocol: Initial phase I clinical studies were carried out to assess the safety of oral doses of [D-MeAla]^3-[EtVal]^4-CsA, and to determine the pharmacokinetic profile and safety profile of the drug substance. […] These side effects were not dose-related.

[3] = test system: muscle cell cultures from UCMD patients and healthy donors; experiment: Electron microscopy of mitochondria in muscle cell cultures; format: cell-based, human; details: for percentage of cells with swollen mitochondria: oligomycin treatment
From the text: The muscle cell cultures established from healthy donors and from patients 1, 2 and 3 were studied by electron microscopy.

[4] = test system: myoblast cultures from UCMD patients; experiment: TUNEL incidence of apoptosis in myoblast cultures from UCMD patients; format: cell-based, human; details: myoblast cultures from UCMD patients 1-4
Protocol: Experiments were carried out to experimentally test the existence of a causal link between lack of collagen VI and apoptosis. Myoblast cultures were prepared from muscle biopsies of two unaffected controls and from patients 1, 2, 3 and 4 by enzymatic and mechanical treatment and plating in Dulbecco's modified Eagle's medium (DMEM) supplemented with 20% fetal calf serum, penicillin, streptomycin and amphotericin B (Sigma). To test for apoptosis, cells were fixed in 50% acetone-50% methanol and processed for TUNEL analysis using the Dead End Fluorescence TUNEL System (Promega). Visualization of all nuclei was performed by staining with Hoechst 33258. […] Demir et al. 2002. Giusti et al. 2005.
Panels A and B of FIG. 1 show mitochondrial membrane potentials in myoblasts from UCMD patients 1 (A) and 4 (B) as a function of time. Mitochondrial membrane potential was measured based on accumulation of tetramethylrhodamine methyl ester (TMRM). […] The extent of cell and, consequently, mitochondrial loading with potentiometric probes is affected by the activity of the plasma membrane multidrug resistance pump which is inhibited by cyclosporin A. Treatment with cyclosporins may therefore cause an increased mitochondrial fluorescence that can be erroneously interpreted as an increase of mitochondrial membrane potential. […] Data were acquired and analyzed using Cell R software (Olympus). […]

UCMD and BM patients = experiment: Preliminary clinical trial, TMRM assay on muscle biopsies of UCMD and BM patients; format: in vivo, human; details: daily oral dose of 5 mg/kg for thirty days
Protocol: Five patients were enroIled, of which four suffered from UCMD and one of BM. The patients had mutation in their COL6A1, COL6A2 or COL6A3 genes, respectively. The trial was designed to test whether treatment with CsA was effective in reducing mitochondrial dysfunction as assessed by the ability of oligomycin to cause mitochondrial depolarization in muscle fibers. Depolarization was detected as a change in TMRM fluorescence. Patients were treated with a daily oral dose of 5 mg/kg CsA for a period of thirty days. Muscle biopsies were taken immediately before and after the treatment period and were processed for TMRM assay.

For `CC(=O)OCOC(=O)CN(CC(=O)OCOC(C)=O)c1ccccc1OCCOc1ccccc1N(CC(=O)OCOC(C)=O)CC(=O)OCOC(C)=O` [BAPTA-AM], which “response to oligomycin (mitochondrial depolarization, TMRM)” value [1] is on record?
Its value is “fully normalized”.

For `C/C=C/C[C@@H](C)[C@@H](O)[C@H]1C(=O)N[C@@H](CC)C(=O)N(C)[C@H](C)C(=O)N(CC)[C@@H](C(C)C)C(=O)N[C@@H](C(C)C)C(=O)N(C)[C@@H](CC(C)C)C(=O)N[C@@H](C)C(=O)N[C@H](C)C(=O)N(C)[C@@H](CC(C)C)C(=O)N(C)[C@@H](CC(C)C)C(=O)N(C)[C@@H](C(C)C)C(=O)N1C` [[D-MeAla]^3-[EtVal]^4-CsA], which tolerability ([2]; oral doses of 50 to 1600 mg in a micro-emulsion in water) is on record?
The tolerability was “well tolerated”.

And the side effects ([2]; oral doses of 50 to 1600 mg, not dose-related)?
Its side effects is “Mild and short-lived side effects were observed including nausea, vomiting, abdominal pain, and mild headaches”.

Which “percentage of cells with swollen mitochondria” value ([3]; control (healthy donor) cultures) does the source give for `CC[C@H]1/C=C/C=C/C[C@@H](C)[C@H](O)[C@@](C)(O)C(=O)[C@@H](C)[C@H](O)[C@@H](C)C(=O)[C@@H](C)[C@H](O)[C@@H](C)/C=C/C(=O)O[C@@H]2[C@H](C)[C@H](CC1)O[C@]1(CC[C@H](C)[C@H](C[C@@H](C)O)O1)[C@H]2C` [oligomycin] here?
The value was 4%.

What about the “percentage of cells with swollen mitochondria” value ([3]; cultures from UCMD patients) of the same molecule?
The value was “over 40%”.

What does the source list for cyclosporin A?
occurrence of apoptosis (TUNEL) in the patient samples [4]: fully normalized the occurrence of apoptosis; response to oligomycin (mitochondrial depolarization, TMRM) [1]: fully normalized; number of cells with swollen mitochondria ([3]; UCMD cells, no oligomycin): decreased the number of cells with swoIlen mitochondria to the values observed in cultures from healthy donors; percentage of cells bearing swollen mitochondria after oligomycin ([3]; oligomycin-treated cultures plus cyclosporin A): restored to values similar to basal; mitochondrial dysfunction as assayed by oligomycin-induced depolarization (UCMD and BM patients): capable of substantially reducing mitochondrial dysfunction; muscle cells depolarizing on oligomycin, subsequent to treatment (UCMD and BM patients; average of five patients, 90% prior to treatment): 37%

Reference: patent US8450281B2, “Non-immunosuppressive cyclosporin for treatment of Ullrich congenital muscular dystrophy” (Debiopharm S.A., priority 2007, dated 2013)
